Source: patent US10512624B2, “Long-chain amphipathic dicarboxylic acids for treatment of diabetes type-1” (Syndromex Ltd., priority 2016, dated 2019)

Experiments:
[1] = tested on: adipose adenylate cyclase; conditions: cited from earlier work
[2] = tested on: STZ diabetic rat model, NOD mouse model; conditions: cited from earlier work
[3] = tested on: T1D patients; conditions: insulin-treated (>1 u/kg body weight/day) T1D patients, meta-analysis (ref 12); cited from earlier work
[4] = tested on: STZ diabetic rats; assay: Anti-diabetic efficacy in streptozotocin (STZ) diabetic rats (FBG, IPGTT, IPITT, fluid balance, insulin/glucagon content); assay type: in vivo, rat; conditions: sub-therapeutic insulin NPH 3 u/kg b.i.d alone, STZ diabetic rats
Description: Male Sprague-Dawley (SD) rats weighing 250-275 gr were fed ad libitum (Harlan Teklad 2018), had free access to water, and were kept on a 12:12 h light:dark cycle. Experimental type 1 diabetes (T1D) was induced in overnight fasted rats by a single intra-peritoneal injection of streptozotocin (STZ, 60 mg/kg body weight, Sigma Aldrich) freshly prepared in 0.1 M of cold citrate buffer (pH 4.5), followed by oral 10% glucose solution for the next 24 hours to overcome STZ-induced acute hypoglycemia. STZ diabetic rats (defined as having a fasting blood glucose (FBG) level higher than 300 mg/dl) were selected for further studies.
SHAM (control) rats were injected with 0.1 M of cold citrate buffer (pH 4.5). STZ diabetic or SHAM rats were dosed twice daily by gavage (orally) with 1% CMC (Sigma Aldrich C5678), or with HOOC—C(CH3)2—(CH2)12—C(CH3)2—COOH (2,2,15,15-tetramethylhexadecane-1,16-dioic acid) also termed herein “MEDICA16αα”, “Medica16αα” or M16αα(15 mg/kg body weight) suspended in 1% CMC, or injected intraperitoneal (i.p.) with Neutral Protamine Hagedorn (NPH) insulin (3 u/kg body weight b.i.d), as indicated.
(§1) Administering a combination of Medica16αα and insulin was performed by treating STZ diabetic rats (FBG >300 mg/dl) with oral MEDICA16αα(15 mg/kg b.i.d) for five consecutive days, then MEDICA16αα-responsive rats were further treated with MEDICA16αα(15 mg/kg b.i.d) for 10 additional consecutive days (“STZ/MEDICA Res”), and MEDICA16αα non-responsive rats (FBG >250 mg/dl) were further treated for 10 additional consecutive days with either insulin Neutral Protamine Hagedorn (NPH) (3 u/kg b.i.d subcutaneously) (“STZ/NPH”), or with insulin NPH (3 u/kg b.i.d subcutaneously in combination with oral MEDICA16αα(15 mg/kg b.i.d) (“STZ/MEDICA NPH”).
Tail vein FBG was verified daily by a glucometer (Glucometer®, Accu-Check® Performa, Roche Diagnostics). Urine secretion, food and water consumption were measured in standard metabolic cages (Tecniplast™ Metabolic Cage Systems for Rodents) for 48 hour periods. Samples were collected and recorded every 12 hour.
Overnight fasted rats were injected i.p (1 gr glucose/kg bw) with 20% dextrose solution (Teva Medical). Tail vein blood was sampled on 0, 30, 60, 90 and 120 minutes following glucose injection.
Fasted rats (5 hours fast) were injected i.p (2 u/kg bw) with HumulinR insulin (Eli Lilly). Tail blood glucose levels were measured by glucometer at 0, 15, 30, 60, and 120 min following insulin injection.
(§2) Pancreas and plasma insulin and glucagon content were determined by insulin (Millipore, Cat #RI-13K) and glucagon (Millipore, Cat # GL-32K) radioimmunoassay (RIA) kits. cAMP levels were measured by cAMP kit (Arbor Assays, DetectX Cat # K019-H1).

[5] = tested on: hepatic gluconeogenesis; assay: Suppression of hepatic gluconeogenesis in STZ diabetic rats (RT-PCR, Western blot, cAMP kit); assay type: in vivo, rat
Description: as §1
Sampled frozen tissue was homogenized (Polytron) in lysis buffer (50 mM Tris HCl, pH 8.0, 1% Triton X-100, 1 mM EGTA, 1 mM EDTA, 150 mM NaCl, 5 mM NaPPi, 50 mM NaF, 1 mM PMSF, 1 mM Na Vanadate, 40 nM bpVfan and protease inhibitor cocktail (Sigma)), and centrifuged for 15 min at 12,500 rpm.
Protein lysates were prepared in sodium dodecyl sulfate (SDS) sample buffer (62 mM Tris (pH 6.8), 2.3% SDS, […] mercaptoethanol, 10% glycerol), and were subjected to SDS-PAGE, electro-transferred onto cellulose nitrate membranes (Schleicher & Schuell) and probed with the indicated first antibody, followed by HRP-labeled second antibody. Protein concentration was determined by BCA (Thermo Scientific). Bands were detected by ECL, and the intensity of individual bands was determined by densitometry using ImageJ 1.48 v software.
Sampled frozen tissue was homogenized (Polytron) in lysis buffer (50 mM Hepes (pH 7.4), 150 mM NaCl, 10% Glycerol, 1.5 mM MgCl2, 1 mM EGTA, 1% Triton, 50 mM β-glycerolphosphate, 25 mM NaF, 1 mM Na-vanadate, 40 nM bpVphen, protease inhibitor mix (Sigma) and 17.5 mg/ml octyl beta-D-glucopyranoside (Sigma)). Lysates were kept on ice for 30 min and centrifuged at 12000 rpm for 15 min. Lysates ([…]) were incubated for 4 h with protein A/G beads (Santa Cruz Biotechnology) pre-loaded with the indicated antibody. The immune-precipitate was rinsed 3 times with washing buffer (20 mM Hepes (pH 7.4), 150 mM NaCl, 0.1% Tx-100, 10% glycerol), re-suspended in SDS sample buffer, boiled for 8 min, and analyzed by SDS-PAGE.
Total RNA was prepared using the TRI reagent (Sigma Aldrich). First-strand cDNA used as template was synthesized by reverse transcription using oligo(dT) as primer and the Reverse-iTMAX First Strand Kit (ABgene, Epson). Glucose-6-phosphatase (G6Pase) and phosphoenolpyruvate carboxykinase (PEPCK) transcripts normalized by tubulin were quantified by real-time PCR (Rotor Gene RG-3000A) using SYBER green MasterMix (Absolute Syber Green ROX Mix, ABgene) and the following primers: […]
as §2

CC(C)(CCCCCCCCCCC(C)(C)CC(=O)O)CC(=O)O [MEDICA16ββ, 3,3,14,14-tetramethylhexadecane-1,16-dioic acid]
adipose adenylate cyclase [1]: inhibit

CN(C)C(=N)N=C(N)N [metformin]
normalizing STZ-induced diabetes, or preventing or delaying autoimmune T1D in NOD mouse [2]: ineffective or only marginally effective
reduction in daily insulin usage [3]: 1.4 u/d

insulin NPH: Neutral Protamine Hagedorn (NPH) insulin, intermediate-acting insulin, used at sub-therapeutic dose 3 u/kg b.i.d
controlling glycemia (FBG, IPGTT, IPITT, fluid balance) [4]: without any effect
hepatic phospho-CREB(Ser179) [5]: ineffective
hepatic phospho-CRTC2(Ser171) [5]: not
hepatic glucose-6-phosphatase and PEPCK transcripts ([5]; compared with STZ/CMC and SHAM/CMC): essentially unaffected
